In patent publication US11130769B2 (Prelude Therapeutics Incorporated, priority 2018, dated 2021):
Like-named read-outs stand apart in the source and are kept apart here.

Assays:
H929 cells = assay: Cell viability assay (H929 10 FBS); format: cell-based; conditions: read-out: H929_10FBS IC50
Procedure, shortened: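 H929 cells, 4000/well, in RPMI 1640 with 10% FBS, sodium pyruvate, HEPES and glucose were exposed to compound 24 h at 37 °C. Viability read as luminescence after 30-60 min at RT with CellTiter-Glo or ATPlite 1 Step.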

MCL-1 = MCL-1 (Homo sapiens (Human), UniProt Q07820); assay: Cell free Mcl-1:Bim affinity assay (fluorescence polarization competition); format: binding; conditions: 15 nM MCL-1, 5 nM FITC-Bim, 1 hour at room temperature, read-out: BIM_Ki
MCL-1, sequence (Q07820 whole entry): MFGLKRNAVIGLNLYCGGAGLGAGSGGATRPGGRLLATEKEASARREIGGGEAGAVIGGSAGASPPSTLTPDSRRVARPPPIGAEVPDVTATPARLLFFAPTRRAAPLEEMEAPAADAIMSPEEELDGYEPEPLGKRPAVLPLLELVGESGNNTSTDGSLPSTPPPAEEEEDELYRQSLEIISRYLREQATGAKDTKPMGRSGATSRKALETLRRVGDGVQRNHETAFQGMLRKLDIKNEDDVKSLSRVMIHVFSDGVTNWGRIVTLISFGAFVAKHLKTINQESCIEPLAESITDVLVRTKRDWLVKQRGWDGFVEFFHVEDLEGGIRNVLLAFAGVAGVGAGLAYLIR
Procedure, shortened: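 Compounds competed with FITC-labelled Bim peptide (5 nM) for MCL-1 (15 nM) in HEPES/NaCl buffer with 1% DMSO, 1 h at room temperature. Fluorescence polarization (535 nm emission) gave % inhibition versus DMSO and positive controls; IC50 from 10-point curves, converted to Ki by the Nikolovska-Coleska equation.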

[1] = Homo sapiens, NCI-H929, 24 hours

Row | IC50 (H929 cells; [1]) [nM] | Ki (MCL-1; class symbols) [nM] | Ki (MCL-1; numeric values) [nM] | SMILES | IC50 (H929 cells; 24 hours) [nM]
1 | < 500 | < 1 |  | CNCCN(C)C(=O)O[C@H]1/C=C/COC(C)(C)C(=O)NS(=O)(=O)c2ccc3c(c2)N(C[C@@H]2CC[C@H]21)C[C@@]1(CCCc2cc(Cl)ccc21)CO3 [Example 194, [(3R,6R,7S,8E,22S)-6′-Chloro-12,12-dimethyl-13,15,15-trioxo-spiro[11,20-dioxa-15-thia-1,14-diazatetracyclo[14.7.2.03,6.019,24]pentacosa-8,16,18,24-tetraene-22,1′-tetralin]-7-yl] N-methyl-N-[2-(methylamino)ethyl]carbamate] | 
2 | < 500 | < 1 |  | CN1C/C=C/[C@H](OC(=O)N[C@H]2CCOC2)[C@@H]2CC[C@H]2CN2C[C@@]3(CCCc4cc(Cl)ccc43)COc3ccc(cc32)S(=O)(=O)NC(=O)C1(C)C [Example 212, [(3R,6R,7S,8E,22S)-6′-Chloro-11,12,12-trimethyl-13,15,15-trioxo-spiro[20-oxa-15-thia-1,11,14-triazatetracyclo[14.7.2.03,6.019,24]pentacosa-8,16,18,24-tetraene-22,1′-tetralin]-7-yl] N-[(3S)-tetrahydrofuran-3-yl]carbamate] | 
3 | > 1000 | 1 to 100 |  | CO[C@@H]1/C=C/CN(S(C)(=O)=O)[C@H](C)C(=O)NS(=O)(=O)c2ccc3c(c2)N(C[C@@H]2CC[C@H]21)C[C@@]1(CCCc2cc(Cl)ccc21)CO3 [Example 135, (3R,6R,7R,8E,12R,22S)-6′-Chloro-7-methoxy-12-methyl-11-methylsulfonyl-15,15-dioxo-spiro[20-oxa-15-thia-1,11,14-triazatetracyclo[14.7.2.03,6.019,24]pentacosa-8,16,18,24-tetraene-22,1′-tetralin]-13-one] | 
4 | < 500 | < 1 |  | CN(C)CCN(C)C(=O)O[C@H]1/C=C/COC2(CCC2)C(=O)NS(=O)(=O)c2ccc3c(c2)N(C[C@@H]2CC[C@H]21)C[C@@]1(CCCc2cc(Cl)ccc21)CO3 [Example 233, [(3R,6R,7S,8E,22S)-6′-Chloro-12,12-(1,3-propylene)-13,15,15-trioxo-spiro[11,20-dioxa-15-thia-1,14-diazatetracyclo[14.7.2.03,6.019,24]pentacosa-8,16(25),17,19(24)-tetraene-22,1′-tetralin]-7-yl] N-[2-(dimethylamino)ethyl]-N-methyl-carbamate] | 
5 | > 1000 | 1 to 100 |  | CC(C)N1CCN(CC2(O)/C=C/COC(C)(C)C(=O)NS(=O)(=O)c3ccc4c(c3)N(C[C@@H]3CC[C@H]32)C[C@@]2(CCCc3cc(Cl)ccc32)CO4)CC1 (stereo partly drawn) [Example 109, (3R,6R,8E,22S)-6′-Chloro-7-hydroxy-7-[(4-isopropylpiperazin-1-yl)methyl]-12,12-dimethyl-15,15-dioxo-spiro[11,20-dioxa-15-thia-1,14-diazatetracyclo[14.7.2.03,6.019,24]pentacosa-8,16,18,24-tetraene-22,1′-tetralin]-13-one] | 
6 | < 1000 | < 1 |  | CN(C(=O)O[C@H]1/C=C/COC(C)(C)C(=O)NS(=O)(=O)c2ccc3c(c2)N(C[C@@H]2CC[C@H]21)C[C@]1(CO3)OCCc2cc(Cl)ccc21)C1COC1 [Example 298, [(3R,6R,7S,8E,22R)-6′-Chloro-12,12-dimethyl-13,15,15-trioxo-spiro[11,20-dioxa-15-thia-1,14-diazatetracyclo[14.7.2.03,6.019,24]pentacosa-8,16,18,24-tetraene-22,1′-isochromane]-7-yl] N-methyl-N-(oxetan-3-yl)carbamate] | 
7 | < 500 | < 1 |  | CN(C)C1CN(C(=O)O[C@H]2/C=C/COC(C)(C)C(=O)NS(=O)(=O)c3ccc4c(c3)N(C[C@@H]3CC[C@H]32)C[C@@]2(CCCc3cc(Cl)ccc32)CO4)C1 [Example 52, [(3R,6R,7S,8E,22S)-6′-Chloro-12,12-dimethyl-13,15,15-trioxo-spiro[11,20-dioxa-15-thia-1,14-diazatetracyclo[14.7.2.03,6.019,24]pentacosa-8,16,18,24-tetraene-22,1′-tetralin]-7-yl] 3-(dimethylamino)azetidine-1-carboxylate] | 
8 | < 500 | < 1 |  | CCCN1C/C=C/[C@H](OC(=O)N(C)C)[C@@H]2CC[C@H]2CN2C[C@@]3(CCCc4cc(Cl)ccc43)COc3ccc(cc32)S(=O)(=O)NC(=O)C1(C)C [Example 211, [(3R,6R,7S,8E,22S)-6′-Chloro-12,12-dimethyl-13,15,15-trioxo-11-propyl-spiro[20-oxa-15-thia-1,11,14-triazatetracyclo[14.7.2.03,6.019,24]pentacosa-8,16,18,24-tetraene-22,1′-tetralin]-7-yl] N,N-dimethylcarbamate] | 
9 | < 500 | < 1 |  | CN(C)C1CN(C(=O)O[C@H]2/C=C/CN(C)C(C)(C)C(=O)NS(=O)(=O)c3ccc4c(c3)N(C[C@@H]3CC[C@H]32)C[C@@]2(CCCc3cc(Cl)ccc32)CO4)C1 [Example 214, [(3R,6R,7S,8E,22S)-6′-Chloro-11,12,12-trimethyl-13,15,15-trioxo-spiro[20-oxa-15-thia-1,11,14-triazatetracyclo[14.7.2.03,6.019,24]pentacosa-8,16,18,24-tetraene-22,1′-tetralin]-7-yl] 3-(dimethylamino)azetidine-1-carboxylate] | 
10 | > 1000 | 1 to 100 |  | CO[C@@H]1/C=C/CO[C@H](C)C(=O)NS(=O)(=O)c2ccc3c(c2)N(C[C@@H]2CC[C@H]21)C[C@@]1(CCCc2cc(Cl)ccc21)CO3 [Example 115, (3R,6R,7R,8E,12R,22S)-6′-Chloro-7-methoxy-12-methyl-15,15-dioxo-spiro[11,20-dioxa-15-thia-1,14-diazatetracyclo[14.7.2.03,6.019,24]pentacosa-8,16,18,24-tetraene-22,1′-tetralin]-13-one] | 
11 | < 1000 | < 1 |  | CO[C@@H]1/C=C/CO[C@@H](C)C(=O)NS(=O)(=O)c2ccc3c(c2)N(C[C@@H]2CC[C@H]21)C[C@@]1(CCCc2cc(Cl)ccc21)CO3 [Example 114, (3R,6R,7R,8E,12S,22S)-6′-Chloro-7-methoxy-12-methyl-15,15-dioxo-spiro[11,20-dioxa-15-thia-1,14-diazatetracyclo[14.7.2.03,6.019,24]pentacosa-8,16,18,24-tetraene-22,1′-tetralin]-13-one] | 
12 | < 500 | < 1 |  | CN(C)CCNC(=O)O[C@H]1/C=C/COC(C)(C)C(=O)NS(=O)(=O)c2ccc3c(c2)N(C[C@@H]2CC[C@H]21)C[C@@]1(CCCc2cc(Cl)ccc21)CO3 [Example 155, [(3R,6R,7S,8E,22S)-6′-Chloro-12,12-dimethyl-13,15,15-trioxo-spiro[11,20-dioxa-15-thia-1,14-diazatetracyclo[14.7.2.03,6.019,24]pentacosa-8,16,18,24-tetraene-22,1′-tetralin]-7-yl] N-[2-(dimethylamino)ethyl]carbamate] | 
13 | < 500 | < 1 |  | CN(C)C(=O)O[C@H]1/C=C/COC2(CC2)C(=O)NS(=O)(=O)c2ccc3c(c2)N(C[C@@H]2CC[C@H]21)C[C@@]1(CCCc2cc(Cl)ccc21)CO3 [Example 41, [(3R,6R,7S,8E,22S)-6′-Chloro-12,12-ethylene-13,15,15-trioxo-spiro[11,20-dioxa-15-thia-1,14-diazatetracyclo[14.7.2.03,6.019,24]pentacosa-8,16,18,24-tetraene-22,1′-tetralin]-7-yl] N,N-dimethylcarbamate] | 
14 | > 1000 |  | 6 | O=C(NS(=O)(=O)c1ccc2c(c1)N(CC1CCC1)CC1(CCCc3cc(Cl)ccc31)CO2)N1CCCC1 (stereo not shown) [Example 24, N-[6′-Chloro-5-(cyclobutylmethyl)spiro[2,4-dihydro-1,5-benzoxazepine-3,1′-tetralin]-7-yl]sulfonylpyrrolidine-1-carboxamide] | 
15 | < 500 | 1 to 100 |  | CN1C/C=C/[C@H](OC(=O)NCC2CC2)[C@@H]2CC[C@H]2CN2C[C@@]3(CCCc4cc(Cl)ccc43)COc3ccc(cc32)S(=O)(=O)NC(=O)C1(C)C [Example 205, [(3R,6R,7S,8E,22S)-6′-Chloro-11,12,12-trimethyl-13,15,15-trioxo-spiro[20-oxa-15-thia-1,11,14-triazatetracyclo[14.7.2.03,6.019,24]pentacosa-8,16,18,24-tetraene-22,1′-tetralin]-7-yl] N-(cyclopropylmethyl)carbamate] | 
16 | > 1000 | < 1 |  | COC[C@@H]1CC/C=C/[C@@H](OC)[C@@H]2CC[C@H]2CN2C[C@@]3(CCCc4cc(Cl)ccc43)COc3ccc(cc32)S(=O)(=O)NC1=O [Example 96, (3R,6R,7R,8E,12S,22S)-6′-Chloro-12-(methoxymethyl)-7-methoxy-15,15-dioxo-spiro[20-oxa-15-thia-1,14-diazatetracyclo[14.7.2.03,6.019,24]pentacosa-8,16,18,24-tetraene-22,1′-tetralin]-13-one] | 

Row | SMILES | IC50 (H929 cells; [1]) [nM] | Ki (MCL-1; class symbols) [nM] | Ki (MCL-1; numeric values) [nM] | IC50 (H929 cells; 24 hours) [nM]
17 | CO[C@@H]1/C=C/CCC2(CC2)C(=O)NS(=O)(=O)c2ccc3c(c2)N(C[C@@H]2CC[C@H]21)C[C@@]1(CCCc2cc(Cl)ccc21)CO3 [Example 69, (3R,6R,7R,8E,22S)-6′-Chloro-7-methoxy-12,12-ethylene-15,15-dioxo-spiro[[20]oxa[15]thia-1,14-diazatetracyclo[14.7.2.03,6.019,24]pentacosa[8,16(25),17,19(24)]tetraene-22,1′-tetralin]-13-one] |  | 1 to 100 |  | > 1000
